From patent publication US20250230193A1, “CYCLIC COMPOUND HAVING SELECTIVE KRAS INHIBITORY EFFECT ON HRAS AND NRAS” (CHUGAI SEIYAKU KABUSHIKI KAISHA, priority 2022, published 2025)
Where a SMILES comes first, the peptide text is derived from it. Bridges are numbered along the chain shown (N, C = ends). [ ]: non-standard residue; d: D form. The star is where a group is joined. hPhe(3,5-F2-4-CF3) = N[C@@H](CCc1cc(F)c(C(F)(F)F)c(F)c1)C(=O)O; hPhe(3-Cl-4-CF3) = N[C@@H](CCc1ccc(C(F)(F)F)c(Cl)c1)C(=O)O; NPrPhe(4-CF3) = CCCN[C@@H](Cc1ccc(C(F)(F)F)cc1)C(=O)O; NEtPhe(4-CF3) = CCN[C@@H](Cc1ccc(C(F)(F)F)cc1)C(=O)O; NMeGly(cPent) = CN[C@H](C(=O)O)C1CCCC1; Pro(4,4-F2) = O=C(O)[C@@H]1CC(F)(F)CN1; Ac4c(3,3-F2) = NC1(C(=O)O)CC(F)(F)C1; NMeD = CN[C@@H](CC(=O)O)C(=O)O; NMeL = CN[C@@H](CC(C)C)C(=O)O; NMeAbu = CC[C@H](NC)C(=O)O; Ac6c = NC1(C(=O)O)CCCCC1; Morpholide = C1CN(*)CCO1; Ac5c = NC1(C(=O)O)CCCC1; Abu = CC[C@H](N)C(=O)O; Sar = CNCC(=O)O

What was measured:
[1] = target: GDP-bound HRAS wild-type protein (Homo sapiens, UniProt P01112); experiment: Binding to HRAS by surface plasmon resonance (SPR), Single Cycle Kinetics; details: for HRAS/KRAS (ratio of KD value with respect to HRAS to KD value with respect to KRAS): GDP-bound HRAS wild-type vs GDP-bound KRAS wild-type
[2] = target: GDP-bound NRAS wild-type protein (Homo sapiens, UniProt P01111); experiment: Binding to NRAS by surface plasmon resonance (SPR), Single Cycle Kinetics; details: for NRAS/KRAS (ratio of KD value with respect to NRAS to KD value with respect to KRAS): GDP-bound NRAS wild-type vs GDP-bound KRAS wild-type
GDP-bound NRAS wild-type protein, sequence (P01111 whole entry): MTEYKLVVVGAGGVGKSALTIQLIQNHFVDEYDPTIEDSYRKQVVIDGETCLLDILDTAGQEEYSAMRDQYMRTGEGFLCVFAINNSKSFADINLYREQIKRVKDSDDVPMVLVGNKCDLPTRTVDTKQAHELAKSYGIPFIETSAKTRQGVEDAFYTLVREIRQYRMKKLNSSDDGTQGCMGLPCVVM

GDP-bound HRAS wild-type protein, sequence (P01112 whole entry): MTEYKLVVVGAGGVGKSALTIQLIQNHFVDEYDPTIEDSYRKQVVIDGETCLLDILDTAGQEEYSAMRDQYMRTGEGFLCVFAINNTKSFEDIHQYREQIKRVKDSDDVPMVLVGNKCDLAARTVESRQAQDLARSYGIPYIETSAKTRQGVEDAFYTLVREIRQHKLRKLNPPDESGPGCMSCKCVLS

In the case of CCO[C@@H]1C[C@H]2C(=O)NC3(CCC3)C(=O)N(C)[C@@H](C(CC)CC)C(=O)N(C)[C@H](C(=O)N3CCCCC3)CC(=O)N(C)[C@H]3CCC/C=C/c4ccc(cc4)C[C@@H](C(=O)N(C)CC(=O)N[C@@H](CCc4cc(F)c(C(F)(F)F)c(F)c4)C(=O)N2C1)N1CC/C=C\C[C@@H](C1=O)N(C)C(=O)CN(C1CC1)C(=O)[C@H]([C@@H](C)CC)NC3=O [PP2956], the “HRAS/KRAS (ratio of KD value with respect to GDP-bound HRAS wild-type protein to KD value with respect to KRAS)” value ([1]; class symbols) is reported as “A (a compound having 10 or more and less than 20 is denoted as A)” and the “NRAS/KRAS (ratio of KD value with respect to GDP-bound NRAS wild-type protein to KD value with respect to KRAS)” value ([2]; class symbols) is reported as “AA (a compound having 20 or more is denoted as AA)”.
In the case of CCCN1C(=O)CN(C)C(=O)CN(C)C(=O)[C@H]([C@@H](C)CC)NC(=O)[C@H](CC)N(C)C(=O)C[C@@H](C(=O)N2CCOCC2)N(C)C(=O)[C@H](C2CCCC2)N(C)C(=O)C2(CCCC2)NC(=O)[C@@H]2CC(F)(F)CN2C(=O)[C@H](CCc2ccc(C(F)(F)F)c(Cl)c2)NC(=O)CN(C)C(=O)[C@@H]1Cc1ccc(C(F)(F)F)cc1 [PP0202] ([NMeAbu]I[Sar][Sar][NPrPhe(4-CF3)][Sar][hPhe(3-Cl-4-CF3)][Pro(4,4-F2)][Ac5c][NMeGly(cPent)][NMeD]-Morpholide; lactam N-11), the “HRAS/KRAS (ratio of KD for GDP-bound HRAS wild-type to KD for KRAS)” value ([1]; SPR) is reported as “C (A compound having a KD ratio of 0.1 or more and less than 3 is denoted as C)” and the “NRAS/KRAS (ratio of KD for GDP-bound NRAS wild-type to KD for KRAS)” value ([2]; SPR) is reported as “B (a compound having 3 or more and less than 10 is denoted as B)”.
In the case of CCCN1C(=O)CN(C)C(=O)CN(C)C(=O)[C@H]([C@@H](C)CC)NC(=O)[C@H](CC(C)C)N(C)C(=O)C[C@@H](C(=O)N2CCOCC2)N(C)C(=O)[C@H](C2CCCC2)N(C)C(=O)C2(CC(F)(F)C2)NC(=O)[C@@H]2CCCN2C(=O)[C@H](CCc2cc(F)c(C(F)(F)F)c(F)c2)NC(=O)CN(C)C(=O)[C@@H]1Cc1ccc(C(F)(F)F)cc1 [PP0766] ([NMeL]I[Sar][Sar][NPrPhe(4-CF3)][Sar][hPhe(3,5-F2-4-CF3)]P[Ac4c(3,3-F2)][NMeGly(cPent)][NMeD]-Morpholide; lactam N-11), the “HRAS/KRAS (ratio of KD value with respect to GDP-bound HRAS wild-type protein to KD value with respect to KRAS)” value ([1]; SPR) is reported as “B (a compound having 3 or more and less than 10 is denoted as B)” and the “NRAS/KRAS (ratio of KD value with respect to GDP-bound NRAS wild-type protein to KD value with respect to KRAS)” value ([2]; SPR) is reported as “B (a compound having 3 or more and less than 10 is denoted as B)”.
In the case of CCO[C@@H]1C[C@H]2C(=O)NC3(CCC3)C(=O)N(C)[C@@H](C3CCCC3)C(=O)N(C)[C@H](C(=O)N(C)C)CC(=O)N(C)[C@@H](CC(C)C)C(=O)N[C@@H]([C@@H](C)CC)C(=O)N(C)CC(=O)N(C)[C@H]3CCCCCN(C3=O)[C@@H](Cc3ccc(F)cc3)C(=O)N(C)CC(=O)N[C@@H](CCc3ccc(C(F)(F)F)c(Cl)c3)C(=O)N2C1 [PP0972], the “HRAS/KRAS (ratio of KD value with respect to HRAS to KD value with respect to KRAS)” value ([1]; SPR) is reported as “B (a compound having 3 or more and less than 10 is denoted as B)” and the “NRAS/KRAS (ratio of KD value with respect to NRAS to KD value with respect to KRAS)” value ([2]; SPR) is reported as “B (a compound having 3 or more and less than 10 is denoted as B)”.
CC[C@H](C)[C@@H]1NC(=O)[C@H](CC(C)C)N(C)C(=O)C[C@@H](C(=O)N2CCOCC2)N(C)C(=O)[C@H](C2CCCC2)N(C)C(=O)C2(CCCCC2)NC(=O)[C@@H]2CCCN2C(=O)[C@H](CCc2ccc(C(F)(F)F)c(Cl)c2)NC(=O)CN(C)C(=O)[C@H](Cc2ccc(C(F)(F)F)cc2)N(CC)C(=O)CN(C)C(=O)CN(C)C1=O [PP0236] ([NMeL]I[Sar][Sar][NEtPhe(4-CF3)][Sar][hPhe(3-Cl-4-CF3)]P[Ac6c][NMeGly(cPent)][NMeD]-Morpholide; lactam N-11) was tested, and the “HRAS/KRAS (ratio of KD for GDP-bound HRAS wild-type to KD for KRAS)” value ([1]; SPR) was “C (A compound having a KD ratio of 0.1 or more and less than 3 is denoted as C)” and the “NRAS/KRAS (ratio of KD for GDP-bound NRAS wild-type to KD for KRAS)” value ([2]; SPR) was “B (a compound having 3 or more and less than 10 is denoted as B)”.
In the case of CCO[C@@H]1C[C@H]2C(=O)NC3(CCC3)C(=O)N(C)[C@@H](C3CCCC3)C(=O)N(C)[C@H](C(=O)N(C)C)CC(=O)N(C)[C@@H](Cc3ccc(C#N)cc3)C(=O)N[C@@H]([C@@H](C)CC)C(=O)N(C)CC(=O)N(C)[C@H]3CCCCCN(C3=O)[C@@H](Cc3ccc(C(F)(F)F)cc3)C(=O)N(C)CC(=O)N[C@@H](CCc3cc(F)c(C(F)(F)F)c(F)c3)C(=O)N2C1 [PP1173], the “HRAS/KRAS (ratio of KD value with respect to HRAS to KD value with respect to KRAS)” value ([1]; SPR) is reported as “B (a compound having 3 or more and less than 10 is denoted as B)” and the “NRAS/KRAS (ratio of KD value with respect to NRAS to KD value with respect to KRAS)” value ([2]; SPR) is reported as “B (a compound having 3 or more and less than 10 is denoted as B)”.
CCCN1C(=O)CN(C)C(=O)CN(C)C(=O)[C@H](CC)NC(=O)[C@H](CC(C)C)N(C)C(=O)C[C@@H](C(=O)N2CCOCC2)N(C)C(=O)[C@H](C2CCCC2)N(C)C(=O)C2(CCCC2)NC(=O)[C@@H]2CCCN2C(=O)[C@H](CCc2ccc(C(F)(F)F)c(Cl)c2)NC(=O)CN(C)C(=O)[C@@H]1Cc1ccc(C(F)(F)F)cc1 [PP0248] ([NMeL][Abu][Sar][Sar][NPrPhe(4-CF3)][Sar][hPhe(3-Cl-4-CF3)]P[Ac5c][NMeGly(cPent)][NMeD]-Morpholide; lactam N-11) was tested, and the “HRAS/KRAS (ratio of KD for GDP-bound HRAS wild-type to KD for KRAS)” value ([1]; SPR) was “B (a compound having 3 or more and less than 10 is denoted as B)” and the “NRAS/KRAS (ratio of KD for GDP-bound NRAS wild-type to KD for KRAS)” value ([2]; SPR) was “B (a compound having 3 or more and less than 10 is denoted as B)”.
